In ChEMBL document CHEMBL5143599, “Unraveling the Design and Discovery of c-Jun N-Terminal Kinase Inhibitors and Their Therapeutic Potential in Human Diseases” (J Med Chem, 2022):
Blank lines part the entries; values can stand above or below the compound they belong to. Non-standard residues stand in square brackets, D forms with d. Residues, ends and D or L forms follow the SMILES beside them. Ahx = NCCCCCC(=O)O

Experiments:
[1] = target: T1, Mitogen-activated protein kinase 10 (Homo sapiens, UniProt P53779); experiment: Inhibition of JNK3 (unknown origin) using biotinylated FL-ATF-2 as substrate incubated for 15 mins by HTRF assay
T1 sequence (P53779 whole entry): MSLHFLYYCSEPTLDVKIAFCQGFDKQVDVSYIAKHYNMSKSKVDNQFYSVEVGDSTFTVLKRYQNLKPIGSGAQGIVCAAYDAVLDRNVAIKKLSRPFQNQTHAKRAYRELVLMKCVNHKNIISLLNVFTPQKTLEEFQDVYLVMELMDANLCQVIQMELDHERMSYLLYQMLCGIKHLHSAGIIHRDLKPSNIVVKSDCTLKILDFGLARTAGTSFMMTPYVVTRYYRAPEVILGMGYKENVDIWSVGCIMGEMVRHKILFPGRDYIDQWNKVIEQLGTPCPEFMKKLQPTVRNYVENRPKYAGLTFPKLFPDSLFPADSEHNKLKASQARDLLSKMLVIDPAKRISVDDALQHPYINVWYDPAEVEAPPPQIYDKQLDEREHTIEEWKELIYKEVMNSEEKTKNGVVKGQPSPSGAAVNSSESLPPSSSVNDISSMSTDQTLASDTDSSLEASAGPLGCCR

[2] = target: T2, Mitogen-activated protein kinase 8 (Homo sapiens, UniProt P45983); experiment: Inhibition of JNK1 (unknown origin) using biotinylated FL-ATF-2 as substrate incubated for 15 mins by HTRF assay
T2 sequence (P45983 whole entry): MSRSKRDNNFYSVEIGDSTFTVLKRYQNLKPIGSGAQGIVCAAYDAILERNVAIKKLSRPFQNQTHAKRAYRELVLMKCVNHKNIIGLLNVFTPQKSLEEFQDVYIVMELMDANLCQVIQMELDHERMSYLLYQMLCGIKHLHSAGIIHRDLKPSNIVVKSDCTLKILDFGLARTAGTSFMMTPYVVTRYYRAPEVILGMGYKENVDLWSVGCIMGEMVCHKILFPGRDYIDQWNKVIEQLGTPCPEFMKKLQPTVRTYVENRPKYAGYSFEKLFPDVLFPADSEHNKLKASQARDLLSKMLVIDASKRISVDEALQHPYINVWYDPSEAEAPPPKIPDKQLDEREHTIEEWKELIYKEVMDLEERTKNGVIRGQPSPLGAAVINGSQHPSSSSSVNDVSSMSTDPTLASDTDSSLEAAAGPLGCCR

[3] = target: T3, c-Jun N-terminal kinase, JNK (Homo sapiens, UniProt P45983+P53779+P45984); experiment: Inhibition of c-Jun phosphorylation in human HeLa cells; type: cell-based
[4] = target: T3, c-Jun N-terminal kinase, JNK; experiment: Inhibition of c-Jun phosphorylation in human A-375 cells; type: cell-based
[5] = target: T1, Mitogen-activated protein kinase 10; experiment: Inhibition of JNK3 (unknown origin) irradiated with 400 nm light
[6] = target: T1, Mitogen-activated protein kinase 10; experiment: Inhibition of JNK3 (unknown origin) in dark
[7] = target: T2, Mitogen-activated protein kinase 8; experiment: Inhibition of JNK1 (unknown origin)
[8] = target: T1, Mitogen-activated protein kinase 10; experiment: Inhibition of JNK3 (unknown origin)
[9] = target: Mitogen-activated protein kinase 14 (Homo sapiens, UniProt Q16539); experiment: Inhibition of p38alpha (unknown origin)
Sequence of Mitogen-activated protein kinase 14 (Q16539 whole entry): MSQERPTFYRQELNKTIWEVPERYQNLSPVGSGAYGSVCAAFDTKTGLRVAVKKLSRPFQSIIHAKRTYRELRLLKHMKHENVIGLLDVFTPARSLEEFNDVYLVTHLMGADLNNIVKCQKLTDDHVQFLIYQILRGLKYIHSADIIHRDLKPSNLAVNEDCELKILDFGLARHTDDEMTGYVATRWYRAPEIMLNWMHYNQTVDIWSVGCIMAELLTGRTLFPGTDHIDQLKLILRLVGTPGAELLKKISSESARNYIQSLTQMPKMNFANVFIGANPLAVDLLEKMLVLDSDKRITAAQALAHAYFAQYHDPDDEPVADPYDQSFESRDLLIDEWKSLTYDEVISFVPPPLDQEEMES

[10] = target: Leucine-rich repeat serine/threonine-protein kinase 2 (Homo sapiens, UniProt Q5S007); experiment: Inhibition of LRRK2 (unknown origin)
Sequence of Leucine-rich repeat serine/threonine-protein kinase 2 (Q5S007 whole entry): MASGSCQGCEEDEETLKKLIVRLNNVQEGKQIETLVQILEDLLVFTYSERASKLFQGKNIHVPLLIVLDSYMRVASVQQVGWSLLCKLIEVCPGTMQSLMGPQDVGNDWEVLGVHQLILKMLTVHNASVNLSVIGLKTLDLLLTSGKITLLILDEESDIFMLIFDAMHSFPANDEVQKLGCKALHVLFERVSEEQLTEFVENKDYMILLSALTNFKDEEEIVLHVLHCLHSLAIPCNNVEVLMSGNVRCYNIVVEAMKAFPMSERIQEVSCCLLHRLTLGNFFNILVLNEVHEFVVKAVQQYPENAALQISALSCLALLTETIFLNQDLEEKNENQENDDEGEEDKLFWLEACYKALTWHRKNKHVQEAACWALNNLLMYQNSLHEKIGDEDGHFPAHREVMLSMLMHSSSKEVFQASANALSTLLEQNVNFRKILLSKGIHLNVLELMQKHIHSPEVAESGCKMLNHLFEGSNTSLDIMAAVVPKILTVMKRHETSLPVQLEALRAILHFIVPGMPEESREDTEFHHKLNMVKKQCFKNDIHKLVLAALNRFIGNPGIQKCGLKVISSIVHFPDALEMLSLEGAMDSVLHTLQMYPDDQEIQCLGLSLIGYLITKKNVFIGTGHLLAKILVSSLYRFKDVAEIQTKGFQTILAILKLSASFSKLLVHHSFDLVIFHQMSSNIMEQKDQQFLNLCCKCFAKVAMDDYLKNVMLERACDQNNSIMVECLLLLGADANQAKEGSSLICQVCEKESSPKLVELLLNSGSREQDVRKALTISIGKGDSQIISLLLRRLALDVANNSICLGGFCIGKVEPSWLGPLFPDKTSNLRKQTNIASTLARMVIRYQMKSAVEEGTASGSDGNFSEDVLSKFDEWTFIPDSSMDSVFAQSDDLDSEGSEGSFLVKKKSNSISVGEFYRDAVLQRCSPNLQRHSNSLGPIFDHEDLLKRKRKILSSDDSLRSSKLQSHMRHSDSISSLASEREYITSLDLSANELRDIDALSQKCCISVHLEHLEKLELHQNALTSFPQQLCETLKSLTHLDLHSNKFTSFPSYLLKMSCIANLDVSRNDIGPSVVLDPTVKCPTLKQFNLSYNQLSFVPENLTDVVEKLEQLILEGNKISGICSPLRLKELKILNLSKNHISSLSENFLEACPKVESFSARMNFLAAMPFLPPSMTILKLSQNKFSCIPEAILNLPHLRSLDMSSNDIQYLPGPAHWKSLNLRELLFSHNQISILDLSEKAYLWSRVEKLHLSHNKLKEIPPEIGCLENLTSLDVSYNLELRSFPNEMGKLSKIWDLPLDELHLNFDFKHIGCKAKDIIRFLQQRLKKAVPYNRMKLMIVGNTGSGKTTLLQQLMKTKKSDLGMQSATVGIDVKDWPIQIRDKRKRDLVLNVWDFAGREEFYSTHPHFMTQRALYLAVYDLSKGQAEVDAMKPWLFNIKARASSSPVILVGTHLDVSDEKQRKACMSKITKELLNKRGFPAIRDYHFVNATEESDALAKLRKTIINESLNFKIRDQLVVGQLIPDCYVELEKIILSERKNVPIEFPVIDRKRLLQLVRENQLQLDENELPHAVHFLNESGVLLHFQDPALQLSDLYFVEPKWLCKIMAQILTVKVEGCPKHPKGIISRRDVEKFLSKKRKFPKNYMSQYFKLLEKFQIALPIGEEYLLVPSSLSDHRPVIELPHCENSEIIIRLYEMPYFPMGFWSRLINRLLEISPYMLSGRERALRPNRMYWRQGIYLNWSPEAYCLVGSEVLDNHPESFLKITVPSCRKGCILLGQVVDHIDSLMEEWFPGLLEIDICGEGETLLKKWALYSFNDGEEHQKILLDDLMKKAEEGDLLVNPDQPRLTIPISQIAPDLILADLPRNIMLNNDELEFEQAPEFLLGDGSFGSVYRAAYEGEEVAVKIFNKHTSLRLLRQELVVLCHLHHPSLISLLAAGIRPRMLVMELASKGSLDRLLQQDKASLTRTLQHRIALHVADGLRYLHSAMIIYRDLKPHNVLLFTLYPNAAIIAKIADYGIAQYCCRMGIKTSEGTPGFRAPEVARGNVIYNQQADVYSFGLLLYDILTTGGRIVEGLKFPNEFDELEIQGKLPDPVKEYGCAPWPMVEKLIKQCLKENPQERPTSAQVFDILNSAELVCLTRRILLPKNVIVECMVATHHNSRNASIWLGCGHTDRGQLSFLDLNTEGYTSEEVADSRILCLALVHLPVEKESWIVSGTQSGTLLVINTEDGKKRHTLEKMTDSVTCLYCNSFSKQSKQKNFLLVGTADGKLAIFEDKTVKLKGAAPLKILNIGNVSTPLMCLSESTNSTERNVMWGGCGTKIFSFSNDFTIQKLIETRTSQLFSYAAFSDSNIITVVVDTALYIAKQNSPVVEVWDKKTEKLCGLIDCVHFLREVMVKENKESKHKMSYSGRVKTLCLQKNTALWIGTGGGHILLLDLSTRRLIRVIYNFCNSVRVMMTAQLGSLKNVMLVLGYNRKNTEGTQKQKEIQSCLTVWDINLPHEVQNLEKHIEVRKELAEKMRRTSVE

[11] = target: T2, Mitogen-activated protein kinase 8; experiment: Inhibition of JNK1 (unknown origin) incubated for 1 hr by TR-FRET assay
[12] = target: Mitogen-activated protein kinase 9 (Homo sapiens, UniProt P45984); experiment: Inhibition of JNK2 (unknown origin) using GST-c-jun (1-221) as substrate by scintillation counter analysis
Sequence of Mitogen-activated protein kinase 9 (P45984 whole entry): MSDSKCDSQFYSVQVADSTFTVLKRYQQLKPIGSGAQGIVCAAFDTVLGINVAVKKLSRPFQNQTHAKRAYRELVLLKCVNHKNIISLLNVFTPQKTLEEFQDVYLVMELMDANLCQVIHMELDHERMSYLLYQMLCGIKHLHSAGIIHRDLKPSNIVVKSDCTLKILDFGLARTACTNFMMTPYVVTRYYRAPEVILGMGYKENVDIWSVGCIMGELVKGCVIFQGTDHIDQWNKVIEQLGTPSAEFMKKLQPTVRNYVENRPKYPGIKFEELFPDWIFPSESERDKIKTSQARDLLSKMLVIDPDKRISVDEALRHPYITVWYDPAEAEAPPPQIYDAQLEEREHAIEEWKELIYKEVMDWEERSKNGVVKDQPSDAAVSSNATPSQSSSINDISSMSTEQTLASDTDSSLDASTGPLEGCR

[13] = target: T1, Mitogen-activated protein kinase 10; experiment: Inhibition of JNK3 (unknown origin) using GST-c-jun (1-221) as substrate by scintillation counter analysis
[14] = target: T2, Mitogen-activated protein kinase 8; experiment: Inhibition of JNK1 (unknown origin) using GST-c-jun (1-221) as substrate by scintillation counter analysis
[15] = target: Mitogen-activated protein kinase 8 (Mus musculus, UniProt Q91Y86); experiment: Inhibition of JNK1 in mouse JB6 C1 41 cell lysate incubated for 1 hr relative to control; type: subcellular, JB6 Cl 41-5a
Sequence of Mitogen-activated protein kinase 8 (Mus musculus, UniProt Q91Y86) (Q91Y86 whole entry): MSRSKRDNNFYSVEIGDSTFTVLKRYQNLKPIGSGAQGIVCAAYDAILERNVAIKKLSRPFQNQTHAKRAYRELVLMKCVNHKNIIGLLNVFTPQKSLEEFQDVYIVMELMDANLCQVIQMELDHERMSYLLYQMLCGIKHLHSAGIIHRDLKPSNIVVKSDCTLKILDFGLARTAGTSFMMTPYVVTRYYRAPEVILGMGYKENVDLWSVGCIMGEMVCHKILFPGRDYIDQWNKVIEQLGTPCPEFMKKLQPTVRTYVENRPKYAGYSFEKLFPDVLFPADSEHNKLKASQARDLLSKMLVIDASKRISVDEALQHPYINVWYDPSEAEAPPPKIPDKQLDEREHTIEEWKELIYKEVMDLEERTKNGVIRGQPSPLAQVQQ

[16] = Inhibition of transformation of H-RAS induced mouse JB6 C1 41 cells at 5 uM; type: functional, JB6 Cl 41-5a; design: scale not given: the % may be the effect or the level left
[17] = Antitumor activity against UVB-induced skin cancer SKH-1 mouse model assessed as reduction in tumor growth at 4 nmol, top relative to control; type: functional, Tumor cell line; design: scale not given: the % may be the effect or the level left
[18] = Antitumor activity against UVB-induced skin cancer SKH-1 mouse model assessed as reduction in tumor growth at 20 nmol, top relative to control; type: functional, Tumor cell line; design: scale not given: the % may be the effect or the level left

Compound: CN(C)C/C=C/C(=O)Nc1cccc(C(=O)Nc2ccc(Nc3nccc(-c4c(-c5ccccc5)nn5ccccc45)n3)cc2)c1
EC50 [3]: 48 nM
EC50 [4]: 8.6 nM

Compound: O=c1c(O)c(-c2cc(O)c(O)c(CO)c2)oc2cc(O)c(O)c(O)c12
IC50 [7]: 12.2 µM

Compound: C=CC(=O)Nc1cccc(C(=O)Nc2ccc(Nc3cc(-c4c(C)nc(SC)n4C)ccn3)cc2)c1
IC50 [8]: 2000 nM
IC50 [9]: 1950 nM

Compound: O=c1c(O)c(-c2cc(O)c(O)c(O)c2)oc2cc(O)c(O)c(O)c12
IC50 [7]: 3.4 µM

Compound: CC[C@H](C)[C@H](NC(=O)[C@@H]1CCCN1)C(=O)N[C@@H](CS)C(=O)N[C@@H](CCCNC(=N)N)C(=O)N1CCC[C@H]1C(=O)N[C@H](C(=O)N[C@H](C(=O)N[C@@H](CC(C)C)C(=O)N[C@@H](CC(N)=O)C(=O)N[C@@H](CC(C)C)C(=O)N[C@@H](Cc1ccccc1)C(=O)NCCCCCC(=O)N[C@@H](CCCNC(=N)N)C(=O)N[C@@H](CCCNC(=N)N)C(=O)N[C@@H](C)C(=O)N[C@@H](CCCNC(=N)N)C(=O)N[C@@H](CCCNC(=N)N)C(=O)N[C@@H](C)C(=O)N[C@@H](CCCNC(=N)N)C(=O)N[C@@H](CCCNC(=N)N)C(=O)N[C@@H](CCCNC(=N)N)C(=O)O)[C@@H](C)O)[C@@H](C)O (H-PICRPTTLNLF[Ahx]RRARRARRR-OH)
IC50 [12]: 89 nM
IC50 [13]: 1200 nM
IC50 [14]: 1100 nM

Compound: O=c1c(O)c(-c2ccc(O)c(O)c2)oc2cc(O)c(O)c(O)c12 [QUERCETAGETIN]
IC50 [15]: 4.6 µM
Activity [16]: 73%
Activity [17]: 32%
Activity [18]: 46.7%

Other lines, results leading:

IC50 [1]: 55 nM
IC50 [2]: 1400 nM
Compound: Cc1ccc(NC(=O)c2cccc(-n3cc(NC(=O)Nc4ccccc4Cl)cn3)c2)cn1

IC50 [5]: 31.9 nM
IC50 [6]: 507 nM
Compound: O=[N+]([O-])c1cnc(Sc2nnc(O)n2-c2ccc3c(c2)OCCO3)s1

IC50 [8]: 58.2 nM
Compound: O=C(CSc1c(-c2ccccc2)c2cc(Cl)ccc2[nH]c1=O)NC1CCCC1

IC50 [8]: 99 nM
IC50 [10]: 12 nM
Compound: CC(C)CN(CC(=O)NCCCCCCNC(=O)c1ccc(-c2n[nH]c3ccccc23)cc1)C(=O)CNC(=O)C1COc2ccccc2C1 (stereo unspecified)

IC50 [8]: 184 nM
IC50 [9]: > 10000 nM
Compound: CSc1nc(C)c(-c2ccnc(Nc3ccc(N4CCOCC4)cc3)c2)[nH]1

IC50 [11]: 280 nM
Compound: COCCNc1nnc(Sc2ncc([N+](=O)[O-])s2)s1

IC50 [12]: 92 nM
IC50 [13]: 1200 nM
IC50 [14]: 1160 nM
Compound: H-PKRPTTLNLFRRRQRRKKRG-OH
